Holding throughout (format): cell-based
In experiment [1] the target is T1, CFTR G551D mutant (Homo sapiens, UniProt P13569, G551D).
T1 construct: expressed in transfected cells; host or cells: HEK293 (reverse transfection with plasmid)
In words: YFP-halide influx assay for the CFTR-G551D mutation. Conditions: HEK293 cells, forskolin 10.67 μM. Put shortly:
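Channel opening potentiation measured as 1−F/F0, where F is YFP fluorescence 7 s after iodide injection and F0 before; EC50 taken from concentration plot. Cells: HEK293 transiently expressing CFTR G551D plus halide-sensitive YFP (H148Q, I152L, F47L), 24 h at 37 °C, 5% CO2.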

The target in experiment [2] is T2, CFTR ΔF508 mutant (Homo sapiens, UniProt P13569, DEL508-508).
T2 construct: expressed in transfected cells; host or cells: CFBE41o- (adenoviral transduction)
Briefly: YFP-halide influx assay for the CFTR-ΔF508 mutation, PBS buffer (96 well). To be noted: CFBE41o- cells, forskolin 10.67 μM. An excerpt:
The YFP halide influx assay measures the functionality of the cystic fibrosis Transmembrane Conductance regulator (CFTR) channels in the cystic fibrosis bronchial epithelium cell line CFBE41o-. The assay is used to evaluate the capacity of compounds to increase the open probability of existing CFTR channels in the membrane. It makes use of the observation that the yellow fluorescent protein (YFP) variant YFP H148Q, I152L has its fluorescence substantially quenched by halide ions like Cl^− and I^−. (Galietta, Haggie, & Verkman, 2001) (Nagai, et al., 2002)
For this purpose, CFBE41o-cells are seeded in 96 well plates (6000 CFBE cells/well). One day after seeding, the CFBE cells are transduced with adenoviral vectors that direct the expression of the CFTR ΔF508 mutant and of the YFP reporter. Cells are incubated at 27° C., 5% CO2 for 24 hours so as to allow for the proper folding and migration to the membrane of the CFTR channel or treated with a CFTR modulator during 24 hours at 37° C.
The I^− induced quenching of fluorescence is recorded immediately after injection of I^− for 7 seconds. The capacity of a compound to increase the channel opening is directly correlated with the decrease in fluorescence, and is expressed as (1-(fluorescence after 7 seconds (F)/fluorescence before injection (F0))) and an EC50 can be derived from a (1-F/F0) vs compound concentration plot.

Experiment [3] deals with T2, CFTR ΔF508 mutant. In words: YFP-halide influx assay for the CFTR-ΔF508 mutation (384 well, FDSS/μCell). Conditions: CFBE41o- cells, CFTR-ΔF508, 1×D-PBS, fluorescence after 36 seconds. Put shortly:
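Potentiator read-out as 1−F/F0, F taken 36 s after iodide addition, EC50 fitted against compound concentration. Cells: CFBE41o- expressing ΔF508 CFTR plus halide-sensitive YFP via adenovirus, rescued by 27 °C for 24 h or 24 h modulator at 37 °C.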

The text below walks through data of patent US9382254B2, “Compounds and pharmaceutical compositions thereof for the treatment of cystic fibrosis” (Galapagos NV, priority 2013, dated 2016).

T1 sequence (P13569 whole entry G551D): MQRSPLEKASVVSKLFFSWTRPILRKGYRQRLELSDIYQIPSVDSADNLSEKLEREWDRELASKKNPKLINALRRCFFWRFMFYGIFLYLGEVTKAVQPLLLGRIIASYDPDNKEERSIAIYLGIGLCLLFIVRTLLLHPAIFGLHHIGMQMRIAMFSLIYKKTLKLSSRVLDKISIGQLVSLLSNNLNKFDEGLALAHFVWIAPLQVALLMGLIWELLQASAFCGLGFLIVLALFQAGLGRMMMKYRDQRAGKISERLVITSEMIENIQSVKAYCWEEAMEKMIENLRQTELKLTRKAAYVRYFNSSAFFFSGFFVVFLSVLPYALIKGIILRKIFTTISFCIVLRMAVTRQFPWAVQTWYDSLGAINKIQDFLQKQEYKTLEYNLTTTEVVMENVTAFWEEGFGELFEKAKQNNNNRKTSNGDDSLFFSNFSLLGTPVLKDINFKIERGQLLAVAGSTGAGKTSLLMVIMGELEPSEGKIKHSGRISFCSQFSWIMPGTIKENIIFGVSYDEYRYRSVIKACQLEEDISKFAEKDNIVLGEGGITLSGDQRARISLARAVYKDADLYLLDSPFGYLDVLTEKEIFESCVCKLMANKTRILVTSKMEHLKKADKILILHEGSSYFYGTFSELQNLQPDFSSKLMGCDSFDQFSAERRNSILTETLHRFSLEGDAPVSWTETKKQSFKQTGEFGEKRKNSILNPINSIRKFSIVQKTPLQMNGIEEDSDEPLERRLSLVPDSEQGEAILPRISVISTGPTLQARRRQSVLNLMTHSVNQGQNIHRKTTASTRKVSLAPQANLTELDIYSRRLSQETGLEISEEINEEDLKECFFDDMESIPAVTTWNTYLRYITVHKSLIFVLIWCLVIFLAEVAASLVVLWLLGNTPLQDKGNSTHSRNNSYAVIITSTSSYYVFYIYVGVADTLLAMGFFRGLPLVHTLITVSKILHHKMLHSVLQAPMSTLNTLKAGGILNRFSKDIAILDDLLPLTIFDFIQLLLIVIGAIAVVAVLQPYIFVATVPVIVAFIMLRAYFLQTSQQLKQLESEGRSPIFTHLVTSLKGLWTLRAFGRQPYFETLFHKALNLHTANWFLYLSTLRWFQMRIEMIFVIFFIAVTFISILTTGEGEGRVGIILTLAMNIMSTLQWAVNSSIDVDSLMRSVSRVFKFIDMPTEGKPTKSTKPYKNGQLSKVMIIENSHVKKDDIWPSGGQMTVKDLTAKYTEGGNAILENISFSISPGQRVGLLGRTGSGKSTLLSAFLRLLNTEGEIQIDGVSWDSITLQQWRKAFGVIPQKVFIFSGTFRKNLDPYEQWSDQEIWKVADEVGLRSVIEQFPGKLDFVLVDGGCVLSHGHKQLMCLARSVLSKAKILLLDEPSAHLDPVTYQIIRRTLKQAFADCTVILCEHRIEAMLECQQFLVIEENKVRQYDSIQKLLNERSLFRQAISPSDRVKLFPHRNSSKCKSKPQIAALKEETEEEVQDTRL
T2 sequence (P13569 with tags, fused parts or gaps DEL508-508): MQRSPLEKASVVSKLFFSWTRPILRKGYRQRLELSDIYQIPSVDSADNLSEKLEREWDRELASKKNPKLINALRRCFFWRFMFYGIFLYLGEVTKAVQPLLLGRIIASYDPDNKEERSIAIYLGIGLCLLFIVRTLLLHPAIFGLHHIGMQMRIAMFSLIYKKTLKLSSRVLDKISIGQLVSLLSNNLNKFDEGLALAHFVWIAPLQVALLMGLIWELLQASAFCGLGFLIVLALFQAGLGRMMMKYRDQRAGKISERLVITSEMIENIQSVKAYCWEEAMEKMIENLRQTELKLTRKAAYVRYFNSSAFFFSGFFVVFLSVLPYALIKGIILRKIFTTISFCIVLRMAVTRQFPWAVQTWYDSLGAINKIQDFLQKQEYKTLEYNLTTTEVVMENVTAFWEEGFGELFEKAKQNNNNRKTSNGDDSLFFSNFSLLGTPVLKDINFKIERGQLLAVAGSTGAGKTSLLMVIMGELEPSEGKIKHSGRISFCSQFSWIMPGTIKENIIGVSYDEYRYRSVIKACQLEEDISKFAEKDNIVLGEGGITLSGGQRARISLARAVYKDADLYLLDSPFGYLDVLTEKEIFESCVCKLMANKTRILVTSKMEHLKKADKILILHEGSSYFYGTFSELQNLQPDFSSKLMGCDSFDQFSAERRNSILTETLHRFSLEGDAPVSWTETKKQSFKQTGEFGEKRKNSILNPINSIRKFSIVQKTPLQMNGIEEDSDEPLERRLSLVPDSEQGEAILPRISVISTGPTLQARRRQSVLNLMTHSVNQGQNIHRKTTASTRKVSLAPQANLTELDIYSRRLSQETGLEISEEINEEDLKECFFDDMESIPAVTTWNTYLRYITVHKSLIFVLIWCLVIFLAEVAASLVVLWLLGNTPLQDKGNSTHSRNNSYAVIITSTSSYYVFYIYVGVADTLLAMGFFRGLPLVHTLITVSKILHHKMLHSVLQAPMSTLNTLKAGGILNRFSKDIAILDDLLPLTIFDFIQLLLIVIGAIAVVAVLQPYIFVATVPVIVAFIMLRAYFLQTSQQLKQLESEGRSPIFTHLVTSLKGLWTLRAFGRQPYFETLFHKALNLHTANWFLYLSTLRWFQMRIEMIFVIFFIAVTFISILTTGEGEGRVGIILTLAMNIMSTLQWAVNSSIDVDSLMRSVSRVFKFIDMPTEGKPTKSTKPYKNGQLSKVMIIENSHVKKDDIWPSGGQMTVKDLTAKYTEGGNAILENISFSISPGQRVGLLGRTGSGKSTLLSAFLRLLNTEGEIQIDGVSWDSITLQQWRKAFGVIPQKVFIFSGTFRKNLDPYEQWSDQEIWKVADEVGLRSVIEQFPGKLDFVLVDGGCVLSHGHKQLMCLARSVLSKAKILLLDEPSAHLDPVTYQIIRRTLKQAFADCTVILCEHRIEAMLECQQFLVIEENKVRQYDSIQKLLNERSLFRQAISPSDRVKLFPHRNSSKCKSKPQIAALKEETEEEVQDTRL

In the case of `CC1CN(S(=O)(=O)c2cc(C(N)=O)c(NC(=O)c3ccccc3C(F)(F)F)s2)C(C)(C)CO1` (stereo not drawn) [Compound 263, 2-(2-(trifluoromethyl)benzamido)-5-(2,5,5-trimethylmorpholinosulfonyl) thiophene-3-carboxamide], the EC50 in experiment [1] was determined as 3330 nM; in experiment [2], 81.1 nM; in experiment [3], 148 nM.

Turning to `CN(c1ccc(F)cc1)S(=O)(=O)c1cc(C(N)=O)c(NC(=O)C2(O)CC2)s1` [Compound 236, 5-(N-(4-fluorophenyl)-N-methylsulfamoyl)-2-(1-hydroxycyclopropanecarboxamido) thiophene-3-carboxamide], the EC50 in experiment [1] is 6660 nM; in experiment [2], 46.4 nM; in experiment [3], 25.2 nM.

For the molecule `CC(C)(O)C(=O)Nc1sc(S(=O)(=O)N2CCOc3ccccc32)cc1C(N)=O` [Compound 307, 5-(2H-benzo[b][1,4]oxazin-4(3H)-ylsulfonyl)-2-(2-hydroxy-2-methylpropanamido) thiophene-3-carboxamide], the EC50 in experiment [1] worked out at 793 nM; in experiment [2], 32.8 nM; in experiment [3], 28.5 nM.

`CC(C)c1ccccc1S(=O)(=O)c1cc(C(N)=O)c(NC(=O)C(C)(C)O)s1` [Compound 293, 2-(2-hydroxy-2-methylpropanamido)-5-(2-isopropylphenylsulfonyl) thiophene-3-carboxamide]: the EC50 came to 110 nM in experiment [1], 15.1 nM in experiment [2] and 7.6 nM in experiment [3].

On to `CC(C)Oc1ccc(S(=O)(=O)c2cc(C(N)=O)c(NC(=O)C(C)(C)O)s2)cc1` [Compound 279, 2-(2-hydroxy-2-methylpropanamido)-5-(4-isopropoxyphenylsulfonyl) thiophene-3-carboxamide], for which the EC50 in experiment [1] was 614 nM; in experiment [2], 55.5 nM; in experiment [3] it was 116 nM.

Take `COc1ccc(OC)c(S(=O)(=O)c2cc(C(N)=O)c(NC(=O)C3(O)CC3)s2)c1` [Compound 246, 5-(2,5-dimethoxyphenylsulfonyl)-2-(1-hydroxycyclopropanecarboxamido) thiophene-3-carboxamide]: the EC50 in experiment [1] was 627 nM; in experiment [2], 78.5 nM; in experiment [3], 75.1 nM.

Take `NC(=O)c1cc(S(=O)(=O)c2ccc(F)cc2F)sc1NC(=O)C1(O)CC1` [Compound 256, 5-(2,4-difluorophenylsulfonyl)-2-(1-hydroxycyclopropanecarboxamido) thiophene-3-carboxamide]: the EC50 in experiment [1] worked out at 1770 nM; in experiment [2], 26.2 nM; in experiment [3], 23.1 nM.

As to `CC(O)C(=O)Nc1sc(S(=O)(=O)c2ccc(F)cc2)cc1C(N)=O` (stereo not drawn) [Compound 248, 5-(4-fluorophenylsulfonyl)-2-(2-hydroxypropanamido) thiophene-3-carboxamide], the results for the 50% effective concentration (EC50) in experiment [1], in experiment [2] and in experiment [3] were 1390 nM, 85.8 nM and 70.1 nM, respectively.

In the case of `NC(=O)c1cc(S(=O)(=O)c2ccc(F)cc2Br)sc1NC(=O)C1(O)CC1` [Compound 264, 5-(2-bromo-4-fluorophenylsulfonyl)-2-(1-hydroxycyclopropanecarboxamido) thiophene-3-carboxamide], the values for the EC50 in experiment [1], in experiment [2] and in experiment [3] were 1020 nM, 30.1 nM and 19.4 nM, respectively.

For `C[C@H](O)C(=O)Nc1sc(S(=O)(=O)c2ccc(F)cc2)cc1C(N)=O` [Compound 291, (S)-5-(4-fluorophenylsulfonyl)-2-(2-hydroxypropanamido) thiophene-3-carboxamide], the EC50 is 1510 nM in experiment [1], 81.2 nM in experiment [2] and 17.3 nM in experiment [3].

Take `NC(=O)c1cc(S(=O)(=O)c2c(Cl)cccc2Cl)sc1NC(=O)C1(O)CC1` [Compound 247, 5-(2,6-dichlorophenylsulfonyl)-2-(1-hydroxycyclopropanecarboxamido) thiophene-3-carboxamide]: the 50% effective concentration (EC50) amounted to 113 nM in experiment [1], 10.8 nM in experiment [2] and 18.5 nM in experiment [3].
